Source: PubChem BioAssay (NCI)
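Grown in 96-well plates, cells were treated for 48 hours with each compound at five concentrations. Insufficient inhibition: endpoint recorded as highest concentration tested. TGI marks complete inhibition of growth.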

Assays:
Assay in all cases: NCI tumour cell line growth inhibition, 48 h
786-0 renal = tested on: 786-0 renal
A498 renal = tested on: A498 renal
A549 NSCLC = tested on: A549 NSCLC
ACHN renal = tested on: ACHN renal
CAKI-1 renal = tested on: CAKI-1 renal
CCRF-CEM leukemia = tested on: CCRF-CEM leukemia
COLO 205 colon = tested on: COLO 205 colon
DLD-1 colon = tested on: DLD-1 colon
DMS 114 small cell lung = tested on: DMS 114 small cell lung
DMS 273 small cell lung = tested on: DMS 273 small cell lung
EKVX NSCLC = tested on: EKVX NSCLC
HCC-2998 colon = tested on: HCC-2998 colon
HCT-116 colon = tested on: HCT-116 colon
HCT-15 colon = tested on: HCT-15 colon
HL-60(TB) leukemia = tested on: HL-60(TB) leukemia
HOP-18 NSCLC = tested on: HOP-18 NSCLC
HOP-62 NSCLC = tested on: HOP-62 NSCLC
HOP-92 NSCLC = tested on: HOP-92 NSCLC
HT29 colon = tested on: HT29 colon
IGROV1 ovarian = tested on: IGROV1 ovarian
K-562 leukemia = tested on: K-562 leukemia
KM12 colon = tested on: KM12 colon
KM20L2 colon = tested on: KM20L2 colon
LOX IMVI melanoma = tested on: LOX IMVI melanoma
LXFL 529 NSCLC = tested on: LXFL 529 NSCLC
M14 melanoma = tested on: M14 melanoma
M19-MEL melanoma = tested on: M19-MEL melanoma
MALME-3M melanoma = tested on: MALME-3M melanoma
MOLT-4 leukemia = tested on: MOLT-4 leukemia
NCI-H23 lung = tested on: NCI-H23 lung
NCI-H460 lung = tested on: NCI-H460 lung
NCI-H522 lung = tested on: NCI-H522 lung
OVCAR-3 ovarian = tested on: OVCAR-3 ovarian
OVCAR-4 ovarian = tested on: OVCAR-4 ovarian
OVCAR-5 ovarian = tested on: OVCAR-5 ovarian
OVCAR-8 ovarian = tested on: OVCAR-8 ovarian
RPMI-8226 leukemia = tested on: RPMI-8226 leukemia
RXF 393 renal = tested on: RXF 393 renal
SF-268 CNS = tested on: SF-268 CNS
SF-295 CNS = tested on: SF-295 CNS
SF-539 CNS = tested on: SF-539 CNS
SK-MEL-2 melanoma = tested on: SK-MEL-2 melanoma
SK-MEL-28 melanoma = tested on: SK-MEL-28 melanoma
SK-MEL-5 melanoma = tested on: SK-MEL-5 melanoma
SK-OV-3 ovarian = tested on: SK-OV-3 ovarian
SN12C renal = tested on: SN12C renal
SNB-19 CNS = tested on: SNB-19 CNS
SNB-75 CNS = tested on: SNB-75 CNS
SNB-78 CNS = tested on: SNB-78 CNS
SR leukemia = tested on: SR leukemia
SW-620 colon = tested on: SW-620 colon
TK-10 renal = tested on: TK-10 renal
U251 CNS = tested on: U251 CNS
UACC-257 melanoma = tested on: UACC-257 melanoma
UACC-62 melanoma = tested on: UACC-62 melanoma
UO-31 renal = tested on: UO-31 renal
XF 498 CNS = tested on: XF 498 CNS

Measured: TGI

CCOC(=O)NC(=O)c1cn(-c2ccc(CCOC(=O)NCCCCCCNC(=O)OCCc3ccc(-n4c(=O)[nH]cc(C(=O)NC(=O)OCC)c4=O)cc3)cc2)c(=O)[nH]c1=O
67.3 µM: SNB-75 CNS
72 µM: HOP-62 NSCLC
> 48.9 µM: XF 498 CNS
68.6 µM: NCI-H522 lung
97.5 µM: TK-10 renal
> 76.8 µM: NCI-H460 lung
54.5 µM: SF-539 CNS
> 89.8 µM: SK-OV-3 ovarian
98.8 µM: SNB-78 CNS
> 82.4 µM: SF-295 CNS
60.6 µM: UACC-62 melanoma
> 84.8 µM: SF-268 CNS
> 74.9 µM: U251 CNS
> 91.9 µM: MALME-3M melanoma
69.7 µM: LXFL 529 NSCLC
> 94.8 µM: M19-MEL melanoma
> 93.9 µM: UO-31 renal
51.4 µM: SNB-19 CNS
> 92.7 µM: ACHN renal
> 100 µM: all other assays above

CC(C)(Oc1ccc(C(=O)c2ccc(Cl)cc2)cc1Cl)C(=O)Nc1c(Cl)cccc1Cl
not listed: ACHN renal | COLO 205 colon | HCC-2998 colon | OVCAR-4 ovarian | SN12C renal | SNB-75 CNS
> 100 µM: all other assays above
